Experimental data taken from patent US20170267727A1, “Conjugates of pH Low Insertion Peptide and Monomethyl Auristatins in the Treatment of Solid Tumors” (Lehigh University, priority 2016, published 2017).
Where two headings read alike, the source gives them in different places. Positions of bridges follow the written chain, without caps; N, C: chain ends. Non-standard residues stand in square brackets, D forms with d. Chains are numbered I, II in the order given. *: point of attachment. Dolaproine = CO[C@@H]([C@@H]1CCCN1)[C@@H](C)C(=O)O; Dil = CC[C@H](C)[C@H](NC)[C@@H](CC(=O)O)OC; X1 = C[C@@H](N*)[C@@H](O)c1ccccc1; NMeV = CN[C@H](C(=O)O)C(C)C; Mpa = O=C(O)CCS

What was measured:
MDA-MB-231 cells [1] = experiment: Anti-proliferation Assay (2 hours treatment at pH 7.4 or 5.0, 72 hours growth, MTT); conditions: for cell killing (printed 49% versus 100%): 1.25 μM treatment
Experimental: FIG. 3A, FIG. 3C and FIG. 3E show HeLa cells treated with pHLIP(WT)-MMAE, pHLIP(D25E)-MMAE, and MMAE(linker), respectively. FIG. 3B, FIG. 3D and FIG. 3F show MDA-MB-231 cells treated with pHLIP(WT)-MMAE, pHLIP(D25E)-MMAE, and MMAE(linker), respectively. Black columns represent cells treated at pH 7.4 and cells treated at low pH are shown in grey. For each condition, 3,000 cells/well (96-well plate) were seeded, allowed to adhere overnight, treated for 2 hours, washed once with media and grown for 72 hour in complete medium at physiologic pH. Cell viability was assessed with the MTT assay. All measurements were normalized to the media control (0 μM, pH 7.4), as 100% cell viability. Results are shown as mean±SD (n=6-9).
Anti-proliferation Assay. HeLa and MDA-MB-231 cells were seeded in 96-well plates at a density of 3,000 cells/well and incubated overnight. Before treatment, construct aliquots were solubilized in an appropriate volume of DMEM without FBS (pH 7.4)—so that upon pH adjustment the desired treatment concentration is obtained—and gently sonicated for 30-60 seconds using a bath sonicator (Branson Ultrasonics). After removal of cell media, this treatment solution was added to each well and incubated at 37° C. for 5-10 minutes. The pH was then adjusted to the desired value using a pre-established volume of DMEM, pH 2.0 buffered with citric acid (final volume=50 μL) and the plate was incubated at 37° C. for 2 hours. After treatment, the media was removed, cells were washed once with 100 μL of complete DMEM, and 100 μL of complete medium was added to each well before returning the plate to the incubator. Treatment solutions were collected and their pH values measured using a micro-combination pH probe (Microelectrodes, Inc.). […] Cell viability was determined after 72 hours using the colorimetric MTT assay. Briefly, 10 μL of a 5 mg/mL MTT stock solution was added to the treated cells and incubated for 2 hours at 37° C. The resulting formazan crystals were solubilized in 200 μL DMSO and the absorbance measured at 580 nm using an Infinite 200 PRO microplate reader (Tecan). Cell viability was calculated against control cells treated with media at physiologic pH.
Inhibition of Cell Proliferation. The ability of pHLIP to move MMAE across the cell membrane and to inhibit cancer cell proliferation in concentration and pH-dependent manners was evaluated. Cell treatments for both pHLIP(WT)-MMAE and pHLIP(D25E)-MMAE constructs were carried out with conjugate concentrations ranging from 1.25 to 10 μM at either pH 7.4 or 5.0. After a 2-hour incubation at 37° C., the treatment media was replaced by fresh media, and cells were grown for an additional 72 hours at normal pH before assessing cell viability using the MTT assay. […] This treatment protocol is quite stringent when compared to the typical multi-days exposure treatments used with free drugs (FIG. 6A and FIG. 6B).

[2] = for Trp fluorescence emission maxima: POPC liposomes; for insertion in lipid bilayers: acidic conditions
Experimental: State I corresponds to the peptides in an aqueous environment is shown in black, state II: peptides in the presence of lipid membranes at pH 7.4, shown in blue and state III: peptides in the presence of lipids at pH 5.0 is shown in red. [peptide]=7 μM and peptide-lipid ratio=1:300 with POPC liposomes.
Preparation of POPC Liposomes. Ten milligrams of POPC in chloroform were dried and then held under vacuum overnight. The dried lipid film was rehydrated with 1 ml of 5 mM sodium phosphate, pH 8.0, and mixed by vigorous vortex. The resulting multilamellar vesicle solution was freeze-thawed in liquid nitrogen for seven cycles and were extruded through a polycarbonate membrane with […] diameter pores using a mini extruder (Avanti Polar Lipids) to produce large unilamellar vesicles. Liposomes were used immediately following their preparation. Lipid concentration was checked using the Marshall's assay and the size distribution was verified by dynamic light scattering analysis performed at a scattering angle of 90° using an ALV/GSC-3 goniometer system equipped with ALV/ALV-7004 correlator (ALV-GmbH, Langen, Germany).
Sample preparation for Circular Dichroism and Tryptophan Fluorescence Measurements. Prior to CD or fluorescence measurements, lyophilized aliquots of pHLIP constructs were resuspended to 20 μM with 5 mM sodium phosphate, pH 8.0, and incubated for 1 hour at room temperature. This stock solution was diluted to a final concentration of 7 μM and, when appropriate, incubated with POPC liposomes at a 1:300 peptide-to-lipid molar ratio for 30 minutes at room temperature. Subsequently, samples were adjusted to the desired experimental pH values with the addition of aliquots of an HCl solution to elicit pH-dependent insertion. Samples were allowed to equilibrate at the desired pH for 30 minutes at room temperature before spectroscopic measurements.
Tryptophan Fluorescence Spectroscopy. All measurements were carried out using a Cary Eclipse Fluorescence Spectrophotometer (Varian), and performed at 25° C. with pHLIP construct concentrations equal to 7 μM. Samples were excited at 295 nm and the emission spectra were taken from 300 to 500 nm, with the slit widths for emission and excitation both set 5 nm.
Circular Dichroism Spectroscopy. Far-UV CD spectra of pHLIP constructs were recorded on Jasco J-815 CD spectrometer equipped with a Peltier thermal-controlled cuvette holder (Jasco, Inc.). All measurements were performed in 0.1 mm quartz cuvette at 25° C. with pHLIP constructs concentrations equal to 7 μM. CD intensities are expressed in mean residue molar ellipticity [θ] calculated from the following equation: […]

MDA-MB-231 cells [3] = conditions: 10 μM, 2 hours, pH 7.4 or pH 5.0
Experimental: (§1) The integrity of the plasma membrane is assessed by the uptake of trypan blue dye. 3,000 cells/well of HeLa (FIG. 4A) and MDA-MB-231 (FIG. 4B) cells were seeded, allowed to adhere overnight and treated with 10 μM conjugates or media alone (no peptide) for 2 hours at pH 7.4 (black bars) or pH 5.0 (grey bars). Cells were detached and counted based on trypan blue uptake with a hemacytometer: % of intact cells corresponds to the number of cells not showing any dye uptake over the total number of cells. Results are shown as mean±SD (n=4).
(§2) Cell Membrane Integrity Assay. HeLa and MDA-MB-231 cells were seeded in 96-well plates at a density of 3,000 cells/well and incubated until confluent (˜72 hours). Before treatment, construct aliquots were solubilized in an appropriate volume of DMEM without FBS (pH 7.4) so that upon pH adjustment 10 μM is obtained. Cell media was removed, the treatment solution was added to each well and cell were incubated at 37° C. for 5-10 minutes. The pH was then adjusted to the desired value using a pre-established volume of DMEM, pH 2.0 buffered with citric acid (final volume=50 μL). The plate was incubated at 37° C. for 2 hours. After treatment, the media was removed, cells were detached using trypsin and counted based on trypan blue uptake using a hemacytometer.

HeLa cells = conditions: 10 μM, 2 hours, pH 7.4 or pH 5.0
Experimental: as §1, §2

Row | Substance | cell killing (printed 49% versus 100%) (MDA-MB-231 cells [1]) [%] | inhibition of proliferation (MDA-MB-231 cells [1]; normal pH) | Trp fluorescence emission maxima ([2]; pH 5.0) [nm] | Trp fluorescence emission maxima ([2]; pH 7.4) [nm] | insertion in lipid bilayers [2] | disruption of the plasma membrane (MDA-MB-231 cells [3]) | disruption of the plasma membrane (HeLa cells)
1 | I: H-AAEQNPIYWARYADWLFTTPLLLLDLALLVDADEGTCG-OH / II: [Mpa][NMeV]V[Dil][Dolaproine]-X1 (disulfide I:37-II:1) [pHLIP(WT)-MMAE] | 100 | no significant inhibition of proliferation | 334 | 348 | can insert in lipid bilayers under acidic conditions to form stable transmembrane α-helices | neither conjugates, nor low pH treatment, caused disruption of the membranes | neither conjugates, nor low pH treatment, caused disruption of the membranes
2 | I: H-AAEQNPIYWARYADWLFTTPLLLLELALLVDADEGTCG-NH2 / II: [Mpa][NMeV]V[Dil][Dolaproine]-X1 (disulfide I:37-II:1) [pHLIP(D25E)-MMAE] | 49 |  | 329 | 347 | can insert in lipid bilayers under acidic conditions to form stable transmembrane α-helices | neither conjugates, nor low pH treatment, caused disruption of the membranes | neither conjugates, nor low pH treatment, caused disruption of the membranes
